Bounds are passed on as bounds.

In this test the target is T1, Drak2 (Homo sapiens, UniProt O94768).
T1 sequence (O94768 1-372): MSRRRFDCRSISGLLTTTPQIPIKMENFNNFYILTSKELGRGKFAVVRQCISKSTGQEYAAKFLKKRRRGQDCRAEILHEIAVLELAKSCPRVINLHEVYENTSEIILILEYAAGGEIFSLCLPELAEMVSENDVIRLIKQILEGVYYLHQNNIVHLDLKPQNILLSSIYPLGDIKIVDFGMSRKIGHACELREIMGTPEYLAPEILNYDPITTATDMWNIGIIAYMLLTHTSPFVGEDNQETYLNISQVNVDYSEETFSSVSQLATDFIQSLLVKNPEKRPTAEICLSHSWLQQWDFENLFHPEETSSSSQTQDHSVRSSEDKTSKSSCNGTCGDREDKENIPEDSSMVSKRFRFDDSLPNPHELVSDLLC
The test is described as follows: Drak2 activity test, ADP-Glo kinase assay (Promega). The class given is biochemical. The note with it: inhibition of Drak2 kinase activity, 2 h room temperature, activity range classes, read-out: IC50_Drak2.

Consider `COc1cc(-c2cncc(-c3cc(NC(=O)CC4CC4)cs3)n2)ccc1C(=O)N(C)C1CCN(C)CC1` [Example B60, 4-(6-(4-(2-cyclopropylacetamido)thiophen-2-yl)pyrazin-2-yl)-2-methoxy-N-methyl-N-(1-methylpiperidin-4-yl)benzamide], for which the IC50 lay in the range of 11 to 100 nM.

Turning to `CCCCC(=O)Nc1csc(-c2cncc(-c3ccc(CN4CCOCC4)c(OC)c3)n2)c1` [Example B30, N-(5-(6-(3-methoxy-4-(morpholinomethyl)phenyl)pyrazin-2-yl)thiophen-3-yl)pentanamide], the IC50 is 101 to 1000 nM.

On to `COc1cc(-c2cncc(-c3cc(NC(=O)CC4CCC4)cs3)n2)ccc1C(=O)N1CCOCC1` [Example B32, 2-cyclobutyl-N-(5-(6-(3-methoxy-4-(morpholine-4-carbonyl)phenyl)pyrazin-2-yl)thiophen-3-yl)acetamide], for which the IC50 was 11 to 100 nM.

As for `COc1cc(-c2cncc(-c3cc(NC(=O)CC4CCC4)cs3)n2)ccc1C(=O)Nc1cnn(C)c1OC` [Example B43, 4-(6-(4-(2-cyclobutylacetamido)thiophen-2-yl)pyrazin-2-yl)-2-methoxy-N-(5-methoxy-1-methyl-1H-pyrazol-4-yl)benzamide], the IC50 is 101 to 1000 nM.

`COc1cc(-c2cncc(-c3cc(NC(=O)CC4CCC4)cs3)n2)ccc1S(C)(=O)=O` [Example A44, 2-cyclobutyl-N-(5-(6-(3-methoxy-4-(methylsulfonyl)phenyl)pyrazin-2-yl)thiophen-3-yl)acetamide]: the IC50 lay within 11 to 100 nM.

In the case of `CCCCC(=O)Nc1csc(-c2cncc(-c3ccc(N)c(OC)c3)n2)c1` [Example 196, N-{5-[6-(4-amino-3-methoxyphenyl)pyrazin-2-yl]thiophen-3-yl}pentanamide], the IC50 was less than 10 nM.

Consider `CCC(=O)Nc1csc(-c2cncc(-c3ccc(C(=O)Nc4nnn[nH]4)c(OC)c3)n2)c1` [Example B11, 2-methoxy-4-(6-(4-propionamidothiophen-2-yl)pyrazin-2-yl)-N-(1H-tetrazol-5-yl)benzamide], for which the IC50 is 101 to 1000 nM.

As for `COc1cc(-c2cncc(-c3cc(NC(=O)CC4CCCC4)cs3)n2)ccc1C(=O)N1CCC(OC)CC1` [Example B54, 2-cyclopentyl-N-(5-(6-(3-methoxy-4-(4-methoxypiperidine-1-carbonyl)phenyl)pyrazin-2-yl)thiophen-3-yl)acetamide], the IC50 fell in the range of 11 to 100 nM.

As to `O=C(Nc1csc(-c2cncc(-c3ccc(F)c(F)c3)n2)c1)C1CCC1` [Example A28, N-(5-(6-(3,4-difluorophenyl)pyrazin-2-yl)thiophen-3-yl)cyclobutanecarboxamide], the IC50 lay in the range of 1000 to 10000 nM.

For the compound `COc1ccc(-c2cncc(-c3cc(NC(=O)CC4CC4)cs3)n2)cc1OC` [Example A31, 2-cyclopropyl-N-(5-(6-(3,4-dimethoxyphenyl)pyrazin-2-yl)thiophen-3-yl)acetamide], the IC50 is 11 to 100 nM.

With `CCCCC(=O)Nc1csc(-c2cncc(-c3ccc(C(=O)N(C)C4CCN(C)CC4)c(OC)c3)n2)c1` [Example B59, 2-methoxy-N-methyl-N-(1-methylpiperidin-4-yl)-4-(6-(4-pentanamidothiophen-2-yl)pyrazin-2-yl)benzamide], the IC50 is less than 10 nM.

Take `COc1ccc(-c2cncc(-c3cc(NC(=O)CC4CCCC4)cs3)n2)cc1OC` [Example A33, 2-cyclopentyl-N-(5-(6-(3,4-dimethoxyphenyl)pyrazin-2-yl)thiophen-3-yl)acetamide]: the IC50 is 101 to 1000 nM.

`COc1cc(-c2cncc(-c3cc(NC(=O)CC4CCC4)cs3)n2)ccc1C(=O)N(C)CCN(C)C` [Example B57, 4-(6-(4-(2-cyclobutylacetamido)thiophen-2-yl)pyrazin-2-yl)-N-(2-(dimethylamino)ethyl)-2-methoxy-N-methylbenzamide]: the IC50 lay in the range of 11 to 100 nM.

Regarding `CCCCC(=O)Nc1csc(-c2cncc(-c3ccc(OC)c(OC)c3)c2C#N)c1` [Example C4, N-(5-(4-cyano-5-(3,4-dimethoxyphenyl)pyridin-3-yl)thiophen-3-yl)pentanamide], the IC50 was in the range of 1000 to 10000 nM.

In the case of `CCCCC(=O)Nc1csc(-c2cncc(-c3cc(OC)ccc3OC)n2)c1` [Example A13, N-(5-(6-(2,5-dimethoxyphenyl)pyrazin-2-yl)thiophen-3-yl)pentanamide], the IC50 lay in the range of 101 to 1000 nM.

Consider `COc1cc(-c2cncc(-c3cc(NC(=O)CC4(c5ccc(C(F)(F)F)cc5)CCC4)cs3)n2)ccc1C(=O)N(C)C1CCN(C)CC1` [Example B85, 2-methoxy-N-methyl-N-(1-methylpiperidin-4-yl)-4-(6-(4-(2-(1-(4-(trifluoromethyl)phenyl)cyclobutyl)acetamido)thiophen-2-yl)pyrazin-2-yl)benzamide], for which the IC50 lay in the range of 101 to 1000 nM.

On to `CCCCC(=O)Nc1csc(-c2cncc(-c3ccc(C(N)=O)c(OC)c3)n2)c1` [Example B3, 2-methoxy-4-(6-(4-pentanamidothiophen-2-yl)pyrazin-2-yl)benzamide], for which the IC50 lay in the range of 101 to 1000 nM.

`COc1cc(-c2cncc(-c3cc(NC(=O)NC4CCC4)cs3)n2)ccc1C(=O)N(C)C1CCN(C)CC1` [Example F1, 4-(6-(4-(3-cyclobutylurea)thiophen-2-yl)pyrazin-2-yl)-2-methoxy-N-methyl-N-(1-methylpiperidin-4-yl) benzamide]: the IC50 lay within 11 to 100 nM.

For `COc1ccc(-c2cncc(-c3cc(NC(=O)C4CCCCC4)cs3)n2)cc1OC` [Example A9, N-(5-(6-(3,4-dimethoxyphenyl)pyrazin-2-yl)thiophen-3-yl)cyclohexanecarboxamide], the IC50 was 101 to 1000 nM.

Regarding `CCCCC(=O)Nc1csc(-c2cncc(-c3ccc(OCCN4CCOCC4)c(OC)c3)n2)c1` [Example 179, N-{5-[6-(3-methoxy-4-{[2-(morpholin-4-yl)ethyl]oxy}phenyl)pyrazin-2-yl]thiophen-3-yl} pentanamide], the IC50 lay within 11 to 100 nM.

With `COc1cc(-c2cncc(-c3cc(NC(=O)CC4CC(F)(F)C4)cs3)n2)ccc1OCCN1CCOCC1` [Example 185, 2-(3,3-difluorocyclobutyl)-N-(5-(6-(3-methoxy-4-(2-morpholinylethoxy)phenyl)pyrazin-2-yl)thiophen-3-yl) acetamide], the IC50 lay within 11 to 100 nM.

`O=C(CC1CCC1)Nc1csc(-c2cncc(-c3ccnc4c3ccn4CC(F)(F)F)n2)c1` [Example 215, 2-Cyclobutyl-N-(5-{6-[1-(2,2,2-trifluoroethyl)pyrrolo [2,3-b]pyridin-4-yl]pyrazin-2-yl}thiophen-3-yl) acetamide]: the IC50 is 101 to 1000 nM.

For `CCCCC(=O)Nc1csc(-c2cncc(-c3ccc(OC)c(OC)c3)n2)c1` [Example A1, N-(5-(6-(3,4-dimethoxyphenyl)pyrazin-2-yl)thiophen-3-yl)pentanamide], the IC50 fell in the range of 101 to 1000 nM.

Turning to `CCCCC(=O)Nc1csc(-c2nccc(-c3ccc(C(=O)N(C)C4CCN(C)CC4)c(OC)c3)n2)c1` [Example B66, 2-methoxy-N-methyl-N-(1-methylpiperidin-4-yl)-4-(2-(4-pentanamidothiophen-2-yl)pyrimidin-4-yl)benzamide], the IC50 was 1000 to 10000 nM.

For `COc1cc(-c2cncc(-c3cc(NC(=O)CC4CC(F)(F)C4)cs3)n2)ccc1C(=O)N(C)C1CCN(C)CC1` [Example B83, 4-(6-(4-(2-(3,3-difluorocyclobutyl)acetamido)thiophen-2-yl)pyrazin-2-yl)-2-methoxy-N-methyl-N-(1-methylpiperidin-4-yl)benzamide], the IC50 was 11 to 100 nM.

On to `COc1ccc(-c2cncc(-c3cc(NC(=O)C4CCC4)cs3)n2)cc1C#N` [Example A22, N-(5-(6-(3-cyano-4-methoxyphenyl)pyrazin-2-yl)thiophen-3-yl)cyclobutanecarboxamide], for which the IC50 fell in the range of 101 to 1000 nM.

Regarding `COc1ccc(-c2cncc(NC3CCC(NC(=O)C4CCC4)CC3)n2)cc1OC` (stereo not drawn) [Example D2, N-(4-((6-(3,4-dimethoxyphenyl)pyrazin-2-yl)amino)cyclohexyl)cyclobutanecarboxamide], the IC50 is greater than 10000 nM.

Regarding `COc1cc(-c2cncc(-c3cc(NC(=O)CC4CC4)cs3)n2)ccc1S(=O)(=O)N(C)CCN(C)C` [Example B102, 2-cyclopropyl-N-(5-(6-(4-(N-(2-(dimethylamino)ethyl)-N-methylsulfamoyl)-3-methoxyphenyl)pyrazin-2-yl)thiophen-3-yl)acetamide], the IC50 was 11 to 100 nM.

In the case of `CCCCC(=O)Nc1csc(-c2cncc(-c3ccc4c(c3)OCO4)n2)c1` [Example A23, N-(5-(6-(benzo[d][1,3]dioxol-5-yl)pyrazin-2-yl)thiophen-3-yl)pentanamide], the IC50 lay within 101 to 1000 nM.

Take `CCCCC(=O)Nc1csc(-c2cncc(-c3ccc(C(=O)N(C)C4CC5(C4)CN(C)C5)c(OC)c3)n2)c1` [Example 199, 2-Methoxy-N-methyl-N-(2-methyl-2-azaspiro[3.3]heptane-6-yl)-4-(6-(4-pentamidothiophen-2-yl)pyrazin-2-yl) benzamide]: the IC50 lay in the range of 11 to 100 nM.

On to `COc1ccc(-c2cncc(-c3nc(NC(=O)OC(C)(C)C)cs3)n2)cc1OC` [Example D3, tert-butyl (2-(6-(3,4-dimethoxyphenyl)pyrazin-2-yl)thiazol-4-yl)carbamate], for which the IC50 was greater than 10000 nM.

For `CCCCC(=O)Nc1csc(-c2cncc(-c3ccc(C(=O)N4CCC(OC)CC4)c(OC)c3)n2)c1` [Example B53, N-(5-(6-(3-methoxy-4-(4-methoxypiperidine-1-carbonyl)phenyl)pyrazin-2-yl)thiophen-3-yl)pentanamide], the IC50 was in the range of 11 to 100 nM.

Regarding `O=C(CC1CCC1)Nc1csc(-c2cncc(-c3ccnc4[nH]ccc34)n2)c1` [Example 209, N-(5-(6-(1H-pyrrolo [2,3-b]pyridin-4-yl)pyrazin-2-yl)thiophen-3-yl)-2-cyclobutylacetamide], the IC50 was in the range of 11 to 100 nM.

The values are drawn from patent US20240308992A1 (Biopolar Youtang(Guangdong) Pharmaceutical Co., Ltd., priority 2021, published 2024).
